How the values were obtained:
Format in all cases: functional, organism-based
Conditions in all cases: Homo sapiens
SK-OV-3 = experiment: Inhibitory concentration […] exhibited against SKOV3 cell line […]
A549 = experiment: Inhibitory concentration […] exhibited against A549 cell line […]
MCF7 = experiment: Inhibitory concentration […] exhibited against MCF-7 cell line […]

SMILES | IC50 (SK-OV-3) | IC50 (A549) | IC50 (MCF7)
C=C/C=C\[C@H](C)[C@H](OC(N)=O)[C@@H](C)[C@H](O)[C@@H](C)C/C(C)=C\[C@H](C)[C@@H](O)[C@@H](C)/C=C\[C@@H](O)C[C@@H]1OC(=O)[C@H](C)[C@@H](O)[C@H]1C [DISERMOLIDE] | 21 nM | 22 nM | 28 nM
C=C/C=C\[C@H](C)[C@H](OC(N)=O)[C@@H](C)[C@H](O)[C@@H](C)C/C(C)=C\[C@H](C)[C@@H](O)[C@@H](C)/C=C\[C@@H](O)C[C@@H]1OC(=O)C=C[C@H]1C | 3.4 nM | 3.7 nM | 2.1 nM
C=C/C=C\[C@H](C)[C@H](OC(N)=O)[C@@H](C)[C@H](O)[C@@H](C)C/C(C)=C\[C@H](C)[C@@H](O)[C@@H](C)/C=C\[C@@H](O)C[C@@H]1OC(=O)C(C)=C[C@H]1C | 3.4 nM | 8.6 nM | 5.6 nM
C=C/C=C\[C@H](C)[C@H](OC(N)=O)[C@@H](C)[C@H](O)[C@@H](C)C/C=C\[C@H](C)[C@@H](O)[C@@H](C)/C=C\[C@@H](O)C[C@@H]1OC(=O)[C@H](C)[C@@H](O)[C@H]1C | 35 nM | 50 nM | 46 nM

Reference: ChEMBL document CHEMBL1142765, “Discodermolide analogues as the chemical component of combination bacteriolytic therapy” (Bioorg Med Chem Lett, 2005)
